We go through 32 compounds from US20230096028A1, “BICYCLIC HETEROCYCLYL COMPOUNDS AND USES THEREOF” (Revolution Medicines, Inc., priority 2019, published 2023).

Experiment [1] relates to PC-9 cells (EGFR Ex19Del). Briefly: Potency Assay: pERK (SOS1 pERK IC50 Assay, AlphaLISA SureFire Ultra p-ERK1/2). Type of experiment: cell-based. The note with it: Homo sapiens; PC-9 cells (EGFR Ex19Del), 1 hour incubation, AlphaLISA p-ERK1/2; read-out: SOS1 pERK IC50. The procedure, abridged:
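Cellular pERK1/2 by AlphaLISA SureFire Ultra after 1 h compound exposure (37° C., highest concentration 10 μM, 3-fold steps, duplicates) of EGFR Ex19Del PC-9 cells seeded the day before. A 4-parameter fit of signal versus log concentration gives IC50.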
For orientation: Bead proximity is the source of the signal in Alpha formats.

Experiment [2] has as its target T1, SOS1 catalytic domain (residues 564-1049) (Homo sapiens, UniProt Q07889).
T1 sequence (Q07889 564-1049): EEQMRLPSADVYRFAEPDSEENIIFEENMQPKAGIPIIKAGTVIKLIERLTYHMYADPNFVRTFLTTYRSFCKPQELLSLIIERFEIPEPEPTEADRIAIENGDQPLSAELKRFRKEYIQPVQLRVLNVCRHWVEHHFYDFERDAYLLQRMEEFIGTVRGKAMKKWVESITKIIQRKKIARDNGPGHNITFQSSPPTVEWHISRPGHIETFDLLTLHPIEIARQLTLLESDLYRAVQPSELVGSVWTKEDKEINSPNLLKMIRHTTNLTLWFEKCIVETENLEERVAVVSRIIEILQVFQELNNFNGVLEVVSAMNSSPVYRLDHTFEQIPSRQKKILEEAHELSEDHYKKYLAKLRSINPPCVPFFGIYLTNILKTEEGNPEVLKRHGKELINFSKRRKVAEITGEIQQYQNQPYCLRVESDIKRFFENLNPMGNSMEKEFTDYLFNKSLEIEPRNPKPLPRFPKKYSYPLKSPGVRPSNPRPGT
Briefly: Potency Assay: binding affinity to SOS1 using Surface Plasmon Resonance (SPR). On the set-up: SOS1 catalytic domain (residues 564-1049) immobilized on a sensor chip. The note with it: immobilized SOS1 catalytic domain (residues 564-1049), read-out: SOS1 SPR Equilibrium Kd. Put shortly:
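Kd was obtained by plotting binding response, taken just before association ended, versus compound concentration on a Biacore 8K. Compounds flowed at 50 μL/min over streptavidin-captured avi-SOS1 catalytic domain (~6000 RU), followed by buffer dissociation; HEPES 0.01 M/NaCl 0.15 M/0.05% P20 buffer, double-referenced.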

Experiment [3] addresses T1, SOS1 catalytic domain (residues 564-1049). The experiment is described as follows: Mode of Action Assay: inhibition of SOS1 nucleotide exchange activity (SOS1 TR-FRET IC50 Assay). A general note: In TR-FRET formats the signal depends on donor and acceptor labels being close together.
Description: The purpose of this assay was to characterize the inhibitory activity of compounds on SOS1 nucleotide exchange of KRAS. Data was reported as IC50 values based on the TR-FRET signal.
Note—the following protocol describes a procedure for monitoring the inhibition of SOS1 nucleotide exchange activity of wild-type KRAS in response to a compound of the invention.
The SOS1/compound mixture was incubated at room temperature with constant mixing on an orbital shaker for 20 minutes to allow the reaction to reach equilibrium. […] This mixture was prepared immediately before addition to the SOS1/compound mixture to prevent intrinsic nucleotide exchange. Then 5 μL of the pre-incubated SOS1/compound mixture and 7.5 μL of the KRAS mixture were added sequentially in a 384-well low volume black round bottom plate and incubated at room temperature with constant shaking for 30 minutes. Time-resolved fluorescence was measured on a PerkinElmer Envision plate reader.
Three replicates were performed for each compound. Data were normalized by the following: (Positive control−Sample signal)/(Positive control−negative control)*100. The data were fit using a four-parameter logistic fit.

As a reminder, the IC50 is the concentration that gives 50% inhibition. In general, Kd refers to the free concentration of one partner at which half of the binding sites on the other are occupied at equilibrium, for simple one-to-one binding. With `COc1cnc(C(=O)N2Cc3nc(Cl)nc(N[C@H](C)c4cc(N)cc(C(F)(F)F)c4)c3C2)cc1OC` [Example 59], the IC50 in experiment [1] and in experiment [3] was under 1000 nM each time. The Kd in experiment [2] is under 400 nM.
Take `C[C@@H](Nc1nc(Cl)nc2c1CN(C(=O)N1CCNC3(CC3)C1)C2)c1cccc(C(F)(F)F)c1` [Example 374]: the IC50 in experiment [1] and in experiment [3] was under 1000 nM each time. In experiment [2], the Kd was under 400 nM.
For `C[C@@H](Nc1nc(Cl)nc2c1CN(C(=O)N1C3CCC1COC3)C2)c1cccc(C(F)F)c1F` [Example 396], the IC50 in experiment [1] and in experiment [3] was under 1000 nM each time. Besides, the Kd in experiment [2] is under 400 nM.
For `C[C@@H](Nc1nc(Cl)nc2c1C[C@H](N1CCOCC1)CC2)c1cccc(C(F)(F)CO)c1` [Example 437], the IC50 in experiment [1] and in experiment [3] was under 1000 nM each time. Further, in experiment [2], the Kd was under 400 nM.
As for `Cc1nc2c(c(N[C@H](C)c3cc(N)cc(C(F)(F)F)c3)n1)CC(C(=O)N1CCOCC1)C2` (stereo partly drawn) [Example 45, [4-[[(1R)-1-[3-amino-5-(trifluoromethyl)phenyl]ethyl]amino]-2-methyl-6,7-dihydro-5H-cyclopenta[d]pyrimidin-6-yl]-morpholino-methanone], the IC50 in experiment [1] and in experiment [3] was under 1000 nM in each case. Moreover, the Kd in experiment [2] was over 400 nM.
`C[C@@H](Nc1nc(Cl)nc2c1CN(C(=O)C1(O)COC1)CC2)c1cc(N)cc(C(F)(F)F)c1` [Example 226]: the IC50 in experiment [1] and in experiment [3] was over 1000 nM in each case. In addition, the dissociation constant Kd in experiment [2] is under 400 nM.
Turning to `COC1(C(=O)N2Cc3nc(Cl)nc(N[C@H](C)c4cccc(C(F)F)c4F)c3C2)CCN(CC(F)(F)F)CC1` [Example 344], the IC50 in experiment [1] and in experiment [3] was under 1000 nM throughout. The Kd in experiment [2] was under 400 nM.
Take `COc1cc(C(=O)N2Cc3nc(Cl)nc(N[C@H](C)c4cc(N)cc(C(F)(F)F)c4)c3C2)ncn1` [Example 62]: the values for the IC50 in experiment [1] and in experiment [3] were under 1000 nM and over 1000 nM, respectively. Further, the Kd in experiment [2] was under 400 nM.
The matching figures for `C[C@@H](Nc1nc(Cl)nc2c1CN(S(=O)(=O)C1CCNCC1)CC2)c1cc(N)cc(C(F)(F)F)c1` [Example 450]: under 1000 nM, under 1000 nM and under 400 nM.
`CC(Nc1nc(Cl)nc2c1CN(C(=O)N1CCOCC1)C2)c1cc(O)cc(C(F)(F)F)c1` (stereo not drawn) [Example 40, [2-chloro-4-[1-[3-hydroxy-5-(trifluoromethyl)phenyl]ethylamino]-5,7-dihydropyrrolo[3,4-d]pyrimidin-6-yl]-morpholino-methanone]: the IC50 in experiment [1] and in experiment [3] was over 1000 nM each time. The Kd in experiment [2] was over 400 nM.
Take `C[C@@H](Nc1nc(Cl)nc2c1CN(C(=O)c1ncccn1)CC2)c1cc(N)cc(C(F)(F)F)c1` [Example 236]: the IC50 in experiment [1] and in experiment [3] was over 1000 nM throughout. Besides, the Kd in experiment [2] was over 400 nM.
Take `C[C@@H](Nc1nc(Cl)nc2c1CN(C(=O)[C@H]1COCCN1)C2)c1cccc(C(F)F)c1F` [Example 304]: the values for the IC50 in experiment [1] and in experiment [3] were over 1000 nM and under 1000 nM, respectively. Also, the dissociation constant Kd in experiment [2] is under 400 nM.
Turning to `C[C@@H](Nc1nc(CO)nc2c1CN(C(=O)N1CCOCC1)C2)c1cccc(C(F)F)c1F` [Example 348, (R)-(4-((1-(3-(difluoromethyl)-2-fluorophenyl)ethyl)amino)-2-(hydroxymethyl)-5,7-dihydro-6H-pyrrolo[3,4-d]pyrimidin-6-yl)(morpholino)methanone], the IC50 is over 1000 nM in experiment [1] and under 1000 nM in experiment [3]. Besides, the Kd in experiment [2] was under 400 nM.
The matching figures for `C[C@@H](Nc1nc(Cl)nc2c1CN(C(=O)C1(F)CCNCC1)C2)c1cccc(C(F)F)c1F` [Example 284]: under 1000 nM, under 1000 nM and under 400 nM.
For the compound `C[C@@H]1OCC2(CCN(C(=O)N3Cc4nc(Cl)nc(N[C@H](C)c5cccc(C(F)F)c5F)c4C3)CC2)[C@@H]1N` [Example 424], the IC50 in experiment [1] is over 1000 nM; in experiment [3], under 1000 nM. Moreover, the Kd in experiment [2] is under 400 nM.
With `Cc1nc2c(c(N[C@H](C)c3cc(N)cc(C(F)(F)F)c3)n1)CN(S(C)(=O)=O)C2` [Example 46, (R)—N-(1-(3-amino-5-(trifluoromethyl)phenyl)ethyl)-2-methyl-6-(methylsulfonyl)-6,7-dihydro-5H-pyrrolo[3,4-d]pyrimidin-4-amine], the concentration for half-maximal inhibition (IC50) in experiment [1] and in experiment [3] was over 1000 nM throughout. The Kd in experiment [2] was over 400 nM.
On to `CCc1nc2c(c(N[C@H](C)c3cc(N)cc(C(F)(F)F)c3)n1)CN(C(=O)N1CCOCC1)C2` [Example 128, N-[(1R)-1-[3-amino-5-(trifluoromethyl)phenyl]ethyl]-2-ethyl-6-(morpholine-4-carbonyl)-5H,6H,7H-pyrrolo[3,4-d]pyrimidin-4-amine], for which the IC50 in experiment [1] and in experiment [3] was under 1000 nM throughout. Besides, the Kd in experiment [2] is under 400 nM.
Take `COC1(C(=O)N2Cc3nc(Cl)nc(N[C@H](C)c4cccc(C(F)(F)F)c4)c3C2)CCNCC1` [Example 315]: the IC50 in experiment [1] and in experiment [3] was under 1000 nM in each case. Further, the Kd in experiment [2] was under 400 nM.
As for `C[C@@H](Nc1nc(Cl)nc2c1CN(C(=O)c1cc(N3CCOCC3)ccn1)C2)c1cc(N)cc(C(F)(F)F)c1` [Example 68], the IC50 in experiment [1] and in experiment [3] was under 1000 nM each time. Besides, the Kd in experiment [2] is under 400 nM.
Take `C[C@@H](Nc1nc(Cl)nc2c1CN(C(=O)[C@@H]1CNCCO1)C2)c1cccc(C(F)F)c1F` [Example 303]: the IC50 in experiment [1] and in experiment [3] was under 1000 nM in each case. Also, the Kd in experiment [2] is under 400 nM.
For the compound `C[C@@H](Nc1nc(Cl)nc2c1CN(C(=O)c1cccnn1)C2)c1cc(N)cc(C(F)(F)F)c1` [Example 71], the IC50 in experiment [1] and in experiment [3] was under 1000 nM each time. Besides, the dissociation constant (Kd) in experiment [2] is under 400 nM.
In the case of `CNC1(C(=O)N2Cc3nc(Cl)nc(N[C@H](C)c4cccc(C(F)F)c4F)c3C2)CCOC1` (stereo partly drawn) [Example 334], the IC50 in experiment [1] and in experiment [3] was under 1000 nM throughout. Besides, the Kd in experiment [2] is under 400 nM.
Turning to `C[C@@H](Nc1nc(Cl)nc2c1CN(C(=O)C13CCN(CC1)CC3)C2)c1cccc(C(F)F)c1F` [Example 313], the 50% inhibitory concentration (IC50) in experiment [1] and in experiment [3] was under 1000 nM in each case. Also, the Kd in experiment [2] was under 400 nM.
In the case of `C[C@@H](Nc1nc(Cl)nc2c1CN(C(=O)N1C3COCC1COC3)C2)c1cccc(C(F)F)c1F` [Example 409], the half-maximal inhibitory concentration (IC50) in experiment [1] and in experiment [3] was under 1000 nM each time. Also, the Kd in experiment [2] was under 400 nM.
Turning to `C[C@@H](Nc1nc(Cl)nc2c1CN(C(=O)N1CCC3(CCN3)CC1)C2)c1cccc(C(F)F)c1F` [Example 390], the IC50 in experiment [1] and in experiment [3] was under 1000 nM in each case. Also, in experiment [2], the Kd was under 400 nM.
Regarding `COC1CCN(S(=O)(=O)N2CCc3nc(Cl)nc(N[C@H](C)c4cc(N)cc(C(F)(F)F)c4)c3C2)CC1` [Example 179], the IC50 in experiment [1] and in experiment [3] was under 1000 nM each time. Also, the Kd in experiment [2] was under 400 nM.
With `C[C@@H](Nc1nc(Cl)nc2c1CN(C(=O)c1ccccn1)C2)c1cc(N)cc(C(F)(F)F)c1` [Example 65], the IC50 in experiment [1] and in experiment [3] was under 1000 nM throughout. In addition, the Kd in experiment [2] is over 400 nM.
Turning to `C[C@@H](Nc1nc(Cl)nc2c1CN(C(=O)[C@@H]1C[C@@H]1C#N)CC2)c1cc(N)cc(C(F)(F)F)c1` [Example 205], the figures for the IC50 in experiment [1] and in experiment [3] were under 1000 nM and over 1000 nM, respectively. Also, the Kd in experiment [2] was under 400 nM.
The matching figures for `CC1CNCCN1C(=O)N1Cc2nc(Cl)nc(N[C@H](C)c3cccc(C(F)F)c3F)c2C1` (stereo partly drawn) [Example 391]: under 1000 nM, under 1000 nM and under 400 nM.
Turning to `COC1(C(=O)N2Cc3nc(Cl)nc(N[C@H](C)c4cccc(C(F)(F)CN)c4F)c3C2)CCOCC1` [Example 526, N-[(1R)-1-[3-(2-amino-1,1-difluoroethyl)-2-fluorophenyl]ethyl]-2-chloro-6-(4-methoxyoxane-4-carbonyl)-5H,6H,7H-pyrrolo[3,4-d]pyrimidin-4-amine], the IC50 in experiment [1] and in experiment [3] was under 1000 nM in each case. Further, in experiment [2], the equilibrium dissociation constant (Kd) was under 400 nM.
For the compound `CC(C)N1CC(C)(C(=O)N2Cc3nc(Cl)nc(N[C@H](C)c4cccc(C(F)F)c4F)c3C2)C1` [Example 338], the IC50 in experiment [1] and in experiment [3] was under 1000 nM each time. Moreover, the Kd in experiment [2] was under 400 nM.
As to `C[C@@H](Nc1nc(Cl)nc2c1CN(C(=O)C1CC1)CC2)c1cc(N)cc(C(F)(F)F)c1` [Example 219], the IC50 in experiment [1] and in experiment [3] was under 1000 nM in each case. The Kd in experiment [2] is under 400 nM.
